Results from patent US7112600B1, “Fused-ring compounds and use thereof as drugs” (Japan Tobacco Inc., priority 1999, dated 2006).
Structures can show the parent of a compound that is named as a salt.

Experiments:
HCV type 1a = assay: inhibitory activity on HCV type 1a; conditions: statement in words, no method described
HCV type 1b = assay: inhibitory activity on HCV type 1b; conditions: statement in words, no method described
[1] = blood concentration when administered to an animal; format: in vivo; conditions: when administered as a pharmaceutical agent to an animal; statement in words
HCV polymerase = biological target: T1, HCV polymerase (Hepatitis C virus genotype 1b, UniProt P26663); assay: biochemical; conditions: read-out: HCV polymerase inhibitory activity IC50
T1 construct: a region encoding NS5B (591 amino acids; J Virol 1991 Mar, 65(3), 1105-13) was amplified by PCR; 6 His (N); made in house; host or cells: Escherichia coli
T1 sequence (P26663 2420-3010): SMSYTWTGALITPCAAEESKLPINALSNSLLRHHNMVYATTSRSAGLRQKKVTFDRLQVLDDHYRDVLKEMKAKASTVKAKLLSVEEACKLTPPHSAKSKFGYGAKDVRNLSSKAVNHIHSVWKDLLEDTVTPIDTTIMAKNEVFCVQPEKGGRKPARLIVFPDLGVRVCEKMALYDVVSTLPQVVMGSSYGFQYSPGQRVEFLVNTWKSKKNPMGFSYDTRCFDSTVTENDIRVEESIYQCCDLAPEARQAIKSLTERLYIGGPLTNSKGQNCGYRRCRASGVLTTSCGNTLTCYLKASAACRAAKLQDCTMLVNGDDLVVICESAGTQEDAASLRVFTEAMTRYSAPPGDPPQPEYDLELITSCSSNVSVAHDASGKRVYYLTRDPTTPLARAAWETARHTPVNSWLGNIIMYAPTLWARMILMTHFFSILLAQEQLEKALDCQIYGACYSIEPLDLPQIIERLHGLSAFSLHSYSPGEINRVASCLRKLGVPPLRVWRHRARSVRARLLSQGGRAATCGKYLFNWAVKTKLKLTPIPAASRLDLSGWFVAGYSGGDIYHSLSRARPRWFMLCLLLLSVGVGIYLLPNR
Text: The evaluation of the HCV polymerase inhibitory activity of the compound of the present invention is explained in the following. This polymerase is an enzyme coded for by the non-structural protein region called NS5B on the RNA gene of HCV (EMBO J., 15:12-22, 1996).
i) Preparation of enzyme (HCV polymerase)
Using, as a template, a cDNA clone corresponding to the full length RNA gene of HCV BK strain obtained from the blood of a patient with hepatitis C, a region encoding NS5B (591 amino acids; J Virol 1991 Mar, 65(3), 1105-13) was amplified by PCR. The objective gene was prepared by adding a 6 His tag {base pair encoding 6 continuous histidine (His)} to the 5′ end thereof and transformed to Escherichia coli. The Escherichia coli capable of producing the objective protein was cultured. The obtained cells were suspended in a buffer solution containing a surfactant and crushed in a microfluidizer.
ii) Synthesis of substrate RNA
Using a synthetic primer designed based on the sequence of HCV genomic 3′ untranslated region, a DNA fragment (148 bp) containing polyU and 3′X sequence was entirely synthesized and cloned into plasmid pBluescript SK II(+) (Stratagene). The cDNA encoding full length NSSB, which was prepared in i) above, was digested with restriction enzyme KpnI to give a cDNA fragment containing the nucleotide sequence of from the restriction enzyme cleavage site to the termination codon. This cDNA fragment was inserted into the upstream of 3′ untranslated region of the DNA in pBluescript SK II(+) and ligated. The about 450 bp inserted DNA sequence was used as a template in the preparation of substrate RNA.
RNA was synthesized (37° C., 3 hr) by run-off method using this purified DNA as a template, a promoter of pBluescript SK II(+), MEGAscript RNA synthesis kit (Ambion) and T7 RNA polymerase. DNaseI was added and the mixture was incubated for 1 hr. The template DNA was removed by decomposition to give a crude RNA product.
This RNA was applied to formaldehyde denaturation agarose gel electrophoresis to confirm the quality thereof and preserved at −80° C.
iii) Assay of enzyme (HCV polymerase) inhibitory activity
A test substance (compound of the present invention) and a reaction mixture (30 μl) having the following composition were reacted at 25° C. for 90 min.
10% Trichloroacetic acid at 4° C. and 1% sodium pyrophosphate solution (150 μl) were added to this reaction mixture to stop the reaction. The reaction mixture was left standing in ice for 15 min to insolubilize RNA. This RNA was trapped on a glass filter (Whatman GF/C and the like) upon filtration by suction. This filter was washed with a solution containing 1% trichloroacetic acid and 0.1% sodium pyrophosphate, washed with 90% ethanol and is dried. A liquid scintillation cocktail (Packard) was added and the radioactivity of RNA synthesized by the enzyme reaction was measured on a liquid scintillation counter.
The HCV polymerase inhibitory activity (IC50) of the compound of the present invention was calculated from the values of radioactivity of the enzyme reaction with and without the test substance.
Reaction mixture : HCV polymerase (5 μg/ml) obtained in i), substrate RNA (10 μg/ml) obtained in ii), ATP (50 μM), GTP (50 μM), CTP (50 μM), UTP (2 μM), [5,6-^3H]UTP (46 Ci/mmol (Amersham), […]) 20 mM Tris-HCl (pH 7.5), EDTA (1 mM), MgCl2 (5 mM), NaCl (50 mM), DTT (1 mM), BSA (0.01%)

SMILES | IC50 (HCV polymerase) [µM] | other results
Cl.O=C(O)c1ccc2c(c1)nc(-c1ccc(OCc3cc(N4CCCC4=O)ccc3-c3ccc(Cl)cc3)cc1F)n2C1CCCCC1 [2-{4-[2-(4-chlorophenyl)-5-(2-oxopyrrolidin-1-yl)benzyloxy]-2-fluorophenyl}-1-cyclohexylbenzimidazole-5-carboxylic acid hydrochloride] |  | inhibitory activity on HCV type 1a (HCV type 1a): high inhibitory activity; inhibitory activity on HCV type 1b (HCV type 1b): high inhibitory activity; blood concentration [1]: high blood concentration
COc1cc(CCOc2ccc(-c3nc4cc(C(=O)O)ccc4n3C3CCCCC3)cc2)cc(OC)c1OC [Example 101, 1-cyclohexyl-2-{4-[2-(3,4,5-trimethoxyphenyl)ethoxy]phenyl}-benzimidazole-5-carboxylic acid] | 0.14 | 
O=C(O)c1ccc2c(c1)nc(-c1ccc(OCCN3c4ccccc4CCc4ccccc43)cc1)n2C1CCCCC1 [Example 116, 1-cyclohexyl-2-{4-[2-(10,11-dihydro-5H-dibenzo[b,f]azepin-5-yl)ethoxy]phenyl}benzimidazole-5-carboxylic acid] | 0.37 | 
O=C(O)c1ccc2c(c1)nc(-c1ccc(Oc3cccc(Oc4ccccc4)c3)cc1)n2C1CCCCC1 [Example 129, 1-cyclohexyl-2-[4-(3-phenoxyphenoxy)phenyl]benzimidazole-5-carboxylic acid] | 0.12 | 
O=C(O)c1ccc2c(c1)nc(-c1ccc(Oc3cc(-c4cccc(Cl)c4)ncn3)cc1)n2C1CCCCC1 [Example 240, 2-{4-[4-(3-chlorophenyl)-6-pyrimidinyloxy]phenyl}-1-cyclohexylbenzimidazole-5-carboxylic acid] | 0.055 | 
COC(=O)c1ccc2c(c1)nc(-c1ccc(OCc3cc(C(=O)O)ccc3-c3ccc(Cl)cc3)cc1F)n2C1CCCCC1 [Example 281, methyl 2-{4-[5-carboxy-2-(4-chlorophenyl)benzyloxy]-2-fluorophenyl}-1-cyclohexylbenzimidazole-5-carboxylate hydrochloride] | 0.052 | 
O=C(O)c1ccc2c(c1)nc(-c1ccc(OC(c3cccnc3)c3cccnc3)cc1F)n2C1CCCCC1 [Example 300, 2-{4-[bis(3-pyridyl)methoxy]-2-fluorophenyl}-1-cyclohexylbenzimidazole-5-carboxylic acid] | 0.045 | 
CN(C)C(=O)c1ccc(-c2ccc(Cl)cc2)c(COc2ccc(-c3nc4cc(-c5nnn[nH]5)ccc4n3C3CCCCC3)c(F)c2)c1 [Example 434, 2-{4-[2-(4-chlorophenyl)-5-(dimethylcarbamoyl)benzyloxy]-2-fluorophenyl}-1-cyclohexyl-5-tetrazol-5-ylbenzimidazole] | 0.011 | 
